Results reported in PubChem BioAssay (NCI).
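A five-concentration, 48-hour dose response in 96-well plates underlies each endpoint, interpolated linearly between surrounding concentrations. TGI marks complete inhibition of growth.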

Key:
Experiment in all cases: NCI anticancer screen, dose series, 48 h
[1] = tested on: 786-0 renal
[2] = tested on: A498 renal
[3] = tested on: A549 NSCLC
[4] = tested on: CAKI-1 renal
[5] = tested on: CCRF-CEM leukemia
[6] = tested on: COLO 205 colon
[7] = tested on: DLD-1 colon
[8] = tested on: DMS 114 small cell lung
[9] = tested on: DMS 273 small cell lung
[10] = tested on: EKVX NSCLC
[11] = tested on: HCC-2998 colon
[12] = tested on: HCT-116 colon
[13] = tested on: HCT-15 colon
[14] = tested on: HL-60(TB) leukemia
[15] = tested on: HOP-62 NSCLC
[16] = tested on: HOP-92 NSCLC
[17] = tested on: HT29 colon
[18] = tested on: IGROV1 ovarian
[19] = tested on: K-562 leukemia
[20] = tested on: KM12 colon
[21] = tested on: KM20L2 colon
[22] = tested on: LOX IMVI melanoma
[23] = tested on: LXFL 529 NSCLC
[24] = tested on: M14 melanoma
[25] = tested on: M19-MEL melanoma
[26] = tested on: MALME-3M melanoma
[27] = tested on: MOLT-4 leukemia
[28] = tested on: NCI-H226 lung
[29] = tested on: NCI-H23 lung
[30] = tested on: NCI-H460 lung
[31] = tested on: NCI-H522 lung
[32] = tested on: OVCAR-3 ovarian
[33] = tested on: OVCAR-4 ovarian
[34] = tested on: OVCAR-5 ovarian
[35] = tested on: OVCAR-8 ovarian
[36] = tested on: RPMI-8226 leukemia
[37] = tested on: RXF 393 renal
[38] = tested on: SF-268 CNS
[39] = tested on: SF-295 CNS
[40] = tested on: SF-539 CNS
[41] = tested on: SK-MEL-5 melanoma
[42] = tested on: SK-OV-3 ovarian
[43] = tested on: SN12C renal
[44] = tested on: SNB-19 CNS
[45] = tested on: SNB-75 CNS
[46] = tested on: SNB-78 CNS
[47] = tested on: SR leukemia
[48] = tested on: SW-620 colon
[49] = tested on: TK-10 renal
[50] = tested on: U251 CNS
[51] = tested on: UACC-257 melanoma
[52] = tested on: UACC-62 melanoma
[53] = tested on: UO-31 renal
[54] = tested on: XF 498 CNS
[55] = tested on: ACHN renal
[56] = tested on: SK-MEL-2 melanoma
[57] = tested on: SK-MEL-28 melanoma
[58] = tested on: BT-549 breast
[59] = tested on: DU-145 prostate
[60] = tested on: HOP-18 NSCLC
[61] = tested on: HS 578T breast
[62] = tested on: MCF7 breast
[63] = tested on: MDA-MB-435
[64] = tested on: PC-3 prostate
[65] = tested on: T-47D breast
[66] = tested on: RXF-631 renal

O=C(OCCOCCOC(=O)c1c[nH]cc1-c1ccccc1)c1c[nH]cc1-c1ccccc1
TGI [1]: 73.1 µM | TGI [2]: 53.1 µM | TGI [3]: 66.4 µM | TGI [4]: 83.1 µM | TGI [5]: > 100 µM | TGI [6]: 35.6 µM | TGI [7]: 71.4 µM | TGI [8]: 32.5 µM | TGI [9]: 30.6 µM | TGI [10]: 69.9 µM | TGI [11]: 42.4 µM | TGI [12]: 31.6 µM | TGI [13]: 38.5 µM | TGI [14]: 55.1 µM | TGI [15]: 31.7 µM | TGI [16]: 47.8 µM | TGI [17]: 35.2 µM | TGI [18]: 42.5 µM | TGI [19]: > 100 µM | TGI [20]: 44.7 µM | TGI [21]: 46 µM | TGI [22]: 30.2 µM | TGI [23]: 69.2 µM | TGI [24]: 28.2 µM | TGI [25]: 34 µM | TGI [26]: 55.2 µM | TGI [27]: 49.1 µM | TGI [28]: 48.9 µM | TGI [29]: 33.7 µM | TGI [30]: 46.9 µM | TGI [31]: 29.6 µM | TGI [32]: 50 µM | TGI [33]: 49.7 µM | TGI [34]: 62.2 µM | TGI [35]: 84.7 µM | TGI [36]: 56.9 µM | TGI [37]: 35.6 µM | TGI [38]: 40 µM | TGI [39]: 35.7 µM | TGI [40]: 32.5 µM | TGI [41]: 30.5 µM | TGI [42]: 84.4 µM | TGI [43]: 42.1 µM | TGI [44]: 69.9 µM | TGI [45]: 36.7 µM | TGI [46]: 68.7 µM | TGI [47]: 55.6 µM | TGI [48]: 76.5 µM | TGI [49]: 80.1 µM | TGI [50]: 36.7 µM | TGI [51]: 33.1 µM | TGI [52]: 31 µM | TGI [53]: 31.4 µM | TGI [54]: 34.4 µM

CC1OC(OP(=O)(OCc2ccccc2)OCc2ccccc2)C(OC(=O)c2ccccc2)C(OC(=O)c2ccccc2)C1I (stereo not drawn)
TGI [1]: > 100 µM | TGI [3]: > 100 µM | TGI [55]: > 100 µM | TGI [4]: > 100 µM | TGI [5]: > 100 µM | TGI [6]: 84.8 µM | TGI [7]: > 100 µM | TGI [9]: > 100 µM | TGI [10]: > 100 µM | TGI [11]: > 100 µM | TGI [12]: > 100 µM | TGI [13]: > 100 µM | TGI [14]: 49.4 µM | TGI [15]: > 100 µM | TGI [17]: > 100 µM | TGI [18]: > 100 µM | TGI [19]: > 100 µM | TGI [20]: > 100 µM | TGI [21]: > 100 µM | TGI [22]: > 100 µM | TGI [23]: > 100 µM | TGI [24]: > 100 µM | TGI [25]: > 100 µM | TGI [26]: > 100 µM | TGI [27]: 59.1 µM | TGI [29]: > 100 µM | TGI [30]: > 100 µM | TGI [31]: 88.2 µM | TGI [32]: > 100 µM | TGI [33]: > 100 µM | TGI [34]: > 100 µM | TGI [35]: > 100 µM | TGI [36]: 97.8 µM | TGI [37]: 76.9 µM | TGI [38]: > 100 µM | TGI [39]: > 100 µM | TGI [56]: > 100 µM | TGI [57]: > 100 µM | TGI [41]: > 100 µM | TGI [42]: > 100 µM | TGI [43]: 52.5 µM | TGI [44]: > 100 µM | TGI [45]: 68.1 µM | TGI [47]: 80.7 µM | TGI [48]: > 100 µM | TGI [49]: > 100 µM | TGI [50]: > 100 µM | TGI [51]: > 100 µM | TGI [52]: > 100 µM | TGI [53]: > 100 µM | TGI [54]: > 100 µM

CC(C)(C)NNc1c([N+](=O)[O-])cnn(-c2ccccc2)c1=O
TGI [1]: 13.4 µM | TGI [2]: > 100 µM | TGI [3]: 32.4 µM | TGI [55]: 16.4 µM | TGI [58]: 2.7 µM | TGI [4]: 21.1 µM | TGI [5]: 3.4 µM | TGI [6]: 12.6 µM | TGI [7]: 9.52 µM | TGI [9]: 10.4 µM | TGI [59]: 26 µM | TGI [10]: 25.6 µM | TGI [11]: 11.8 µM | TGI [12]: 5.63 µM | TGI [13]: 10.1 µM | TGI [14]: 5.24 µM | TGI [60]: 32 µM | TGI [15]: 22.3 µM | TGI [16]: 12.3 µM | TGI [61]: 26.1 µM | TGI [17]: 7.43 µM | TGI [18]: 38.6 µM | TGI [19]: 2.02 µM | TGI [20]: 24.5 µM | TGI [21]: 13.1 µM | TGI [22]: 3.32 µM | TGI [23]: 3.25 µM | TGI [24]: 4.88 µM | TGI [25]: 5.61 µM | TGI [26]: 11.1 µM | TGI [62]: 14.1 µM | TGI [63]: 3.27 µM | TGI [27]: 4.91 µM | TGI [28]: 14.7 µM | TGI [29]: 11.1 µM | TGI [30]: 26.3 µM | TGI [31]: 4.72 µM | TGI [32]: 5.54 µM | TGI [33]: 6.61 µM | TGI [34]: 15.5 µM | TGI [35]: 4.74 µM | TGI [64]: 3.23 µM | TGI [36]: 23.8 µM | TGI [37]: 18.1 µM | TGI [38]: 31 µM | TGI [39]: 20.1 µM | TGI [40]: 27.1 µM | TGI [57]: 5.79 µM | TGI [41]: 11.1 µM | TGI [42]: 16 µM | TGI [43]: 6.35 µM | TGI [44]: 22.7 µM | TGI [45]: 23.8 µM | TGI [46]: 58.7 µM | TGI [47]: 4.67 µM | TGI [48]: 3.41 µM | TGI [65]: 4.36 µM | TGI [49]: 36.8 µM | TGI [50]: 8.05 µM | TGI [51]: 11.4 µM | TGI [52]: 9.39 µM | TGI [53]: 12.8 µM | TGI [54]: 5.22 µM

COC(=O)/C(C#N)=C1\N=NNN1CCCc1ccccc1
TGI [1]: > 100 µM | TGI [2]: > 100 µM | TGI [3]: > 100 µM | TGI [55]: > 100 µM | TGI [4]: > 100 µM | TGI [5]: > 100 µM | TGI [6]: > 100 µM | TGI [7]: > 100 µM | TGI [8]: > 100 µM | TGI [9]: > 100 µM | TGI [10]: > 100 µM | TGI [11]: > 100 µM | TGI [12]: > 100 µM | TGI [13]: > 100 µM | TGI [60]: > 100 µM | TGI [16]: > 100 µM | TGI [17]: > 100 µM | TGI [18]: > 100 µM | TGI [19]: > 100 µM | TGI [20]: > 100 µM | TGI [22]: > 100 µM | TGI [23]: > 100 µM | TGI [24]: > 100 µM | TGI [25]: > 100 µM | TGI [26]: > 100 µM | TGI [27]: > 100 µM | TGI [28]: > 100 µM | TGI [29]: > 100 µM | TGI [30]: > 100 µM | TGI [31]: 52.7 µM | TGI [32]: > 100 µM | TGI [35]: > 100 µM | TGI [36]: > 100 µM | TGI [37]: > 100 µM | TGI [66]: > 100 µM | TGI [39]: > 100 µM | TGI [40]: > 100 µM | TGI [57]: > 100 µM | TGI [41]: > 100 µM | TGI [42]: > 100 µM | TGI [43]: > 100 µM | TGI [44]: > 100 µM | TGI [45]: > 100 µM | TGI [46]: > 100 µM | TGI [48]: > 100 µM | TGI [49]: > 100 µM | TGI [50]: > 100 µM | TGI [51]: > 100 µM | TGI [52]: > 100 µM | TGI [53]: > 100 µM
